Measured values taken from the METLIN SMRT retention time set (Domingo-Almenara et al. 2019).

Experiment: gradient 5% acetonitrile 3 min, to 50% in 2 min, to 85% in 15 min, held 3 min, 100 µL/min
Conditions: column: Zorbax Extend-C18 2.1 x 50 mm; eluents: water / acetonitrile, 0.1% formic acid
In short: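 Each retention time is based on an adduct peak selected computationally and verified by manual inspection. Measurements used HPLC–quadrupole time-of-flight mass spectrometry in positive and negative ionization mode on mixtures of ~100 pure standards. Chromatography ran on a Zorbax Extend-C18 column (2.1 × 50 mm, 1.8 μm) at 100 μL/min with water and acetonitrile, each containing 0.1% formic acid, and dead and dwell volumes of 40 μL and 900 μL.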

Work on `Cc1cccc(NC(=O)Cn2cnc3onc(C)c3c2=O)c1C` yielded an RP-LC retention time of 754 s.
`Cc1ccc(-c2noc(-c3cccc(S(=O)(=O)N(C)Cc4ccco4)c3)n2)cc1` gave an RP-LC retention time of 1260 s.
In the case of `COc1ccc(NC(=O)N2CCC(n3c(C)nc4cccnc43)CC2)cc1OC`, the RP-LC retention time is reported as 563 s.
`CCOc1ccc(NS(=O)(=O)c2ccc3c(c2)C(=O)N(C)c2ncccc2O3)cc1` showed an RP-LC retention time of 907 s.
Work on `Cc1cccc(-c2nnc(-c3ccc(Cl)c(S(=O)(=O)N4CCCC4)c3)o2)c1` yielded an RP-LC retention time of 1150 s.
Work on `COCc1nnc2n1CCC(NC(=O)C1CC=CC1)CC2` (centres undefined) yielded an RP-LC retention time of 587 s.
For `CCc1cc(C(=O)N2CCCC2c2cccc(F)c2)no1` (centres undefined), the RP-LC retention time was 944 s.
In the case of `Fc1ccc(C(OCCN2CCN(C/C=C/c3ccccc3)CC2)c2ccc(F)cc2)cc1`, the RP-LC retention time is reported as 916 s.
Work on `CC(C)NC(=O)c1ccc2c(c1)nc(CN1CCN(C(=O)NC(C)C)CC1)n2C` yielded an RP-LC retention time of 576 s.
Work on `CCOC(=O)c1cccc(N2C=C(C(=O)OC)S(=O)(=O)c3cc(F)ccc32)c1` yielded an RP-LC retention time of 932 s.
Compound `c1ccc(-n2ncc3c(NCc4ccc5c(c4)OCO5)ncnc32)cc1` has an RP-LC retention time of 877 s.
In the case of `O=c1c(S(=O)(=O)N2CCCCCC2)cccn1Cc1cccc(F)c1`, the RP-LC retention time is reported as 946 s.
With `CC[C@@H](Nc1c(Nc2cccc(C(=O)N(C)C)c2O)c(=O)c1=O)c1cc(C(C)C)co1` the RP-LC retention time was 772 s.
`COc1ccc(CNC(=O)C2CCN(S(=O)(=O)c3cn(C(C)C)cn3)CC2)cc1` showed an RP-LC retention time of 733 s.
For `O=C(Nc1ccc(F)c(F)c1)c1cnc(-c2ccc(F)cc2)nc1-c1ccncc1`, the RP-LC retention time was 985 s.
For `COc1ccc(-c2nnc(-c3cccc(S(=O)(=O)N(C)C)c3)o2)cc1OC`, the RP-LC retention time was 816 s.
In the case of `CNc1cc(C)nc2c(-c3ccc(Cl)cc3)cnn12`, the RP-LC retention time is reported as 731 s.
`CC(C)c1noc(-c2ccnc(-n3cnc(C(=O)N(C)C4CCCCC4)c3)c2)n1` gave an RP-LC retention time of 622 s.
Work on `Cn1c(=O)c(C(=O)NC2CCN(Cc3ccccc3)CC2)nc2cccnc21` yielded an RP-LC retention time of 574 s.
For `Cc1nnc2ccc(NC(=O)Nc3cccc(F)c3)cn12`, the RP-LC retention time was 677 s.
Compound `O=C(CSc1ccc(-c2cccs2)nn1)N1CCN(c2ccccc2)CC1` has an RP-LC retention time of 848 s.
`CCOC(=O)c1cnc2nc(C)ccc2c1Nc1cccc(Br)c1` showed an RP-LC retention time of 756 s.
For `Cc1ccc(N2C(=O)CC(N3CCC(C(N)=O)CC3)C2=O)c(Cl)c1` (centres undefined), the RP-LC retention time was 614 s.
In the case of `O=c1ccc(-c2nc(-c3ccncc3)no2)nn1Cc1ccc(Cl)cc1`, the RP-LC retention time is reported as 909 s.
`O=C(CN1CCC(c2nnc(-c3ccc(F)cc3)o2)CC1)Nc1cccnc1` showed an RP-LC retention time of 539 s.
`CC(C)CC(NC(=O)CC1CCCCC1)C(=O)Nc1nc2ccccc2[nH]1` (centres undefined) showed an RP-LC retention time of 803 s.
For `COCCn1cc(CCNC(=O)Nc2cccc(F)c2)c2cccnc21`, the RP-LC retention time was 732 s.
Compound `COCCCNC(=O)C1CCCN(C(=O)c2[nH]c(C)cc2C)C1` (centres undefined) has an RP-LC retention time of 652 s.
For `CCS(=O)(=O)N1CC(=O)N(c2ccc(F)cc2C)C(C)(C(=O)NCc2ccc(F)cc2)C1` (centres undefined), the RP-LC retention time was 832 s.
For `CC1CCc2[nH]nc(C(=O)N3CCN(C(C)C)CC3)c2C1` (centres undefined), the RP-LC retention time was 588 s.
`Cc1ccsc1C(=O)NCC12CCCC=C1N(C)C(=O)CC2` (centres undefined) showed an RP-LC retention time of 785 s.
`COc1ccc(-n2c(=O)n(C)c(=O)c3cc(C(=O)NCc4ccccc4)cnc32)cc1` gave an RP-LC retention time of 849 s.
For `CN(C)c1ccc(CNC(=O)Cn2cc(-c3nnco3)c3ccccc32)cc1`, the RP-LC retention time was 615 s.
`CCC1CN(C(=O)N2CCC(C(=O)NCCN3CCN(C)CC3)CC2)c2cc(C)ccc2O1` (centres undefined) gave an RP-LC retention time of 619 s.
Compound `CC(C)CC(=O)Nc1ccc2nc(N3CCN(c4cccc(Cl)c4)CC3)cc(C(=O)O)c2c1` has an RP-LC retention time of 762 s.
`CCOc1ccc(N2C=C(C(=O)OC)S(=O)(=O)c3ccc(Br)cc32)cc1` showed an RP-LC retention time of 1040 s.
In the case of `O=C(Cn1c(=O)n(-c2ccccc2)c2ncccc21)N1CCN(c2ccccn2)CC1`, the RP-LC retention time is reported as 596 s.
Compound `CCOc1ccccc1NC(=O)C1CCCN(S(=O)(=O)c2ccc(OC)c(C)c2)C1` (centres undefined) has an RP-LC retention time of 1080 s.
In the case of `COc1ccc(NC(=O)Cn2nc3c(Oc4cccc(F)c4)nccn3c2=O)cc1`, the RP-LC retention time is reported as 814 s.
Compound `Cn1cc(S(=O)(=O)N2CCC(C(=O)N3CCc4ccccc4C3)CC2)cc1C(=O)N1CCCC1` has an RP-LC retention time of 782 s.
In the case of `CSc1cccc(NC(=O)Cn2ccn3nc(-c4ccc(F)cc4)c(CO)c3c2=O)c1`, the RP-LC retention time is reported as 877 s.
Work on `CCc1cc(C2CCCN2C(=O)Nc2ccc(OC)cc2OC)on1` (centres undefined) yielded an RP-LC retention time of 829 s.
In the case of `Cc1ccc(-c2cc3c(=O)n(Cc4noc(CN5CCCC5)n4)ccn3n2)cc1`, the RP-LC retention time is reported as 654 s.
`COc1cccc(-c2ccnc3nc(-c4cccs4)nn23)c1` gave an RP-LC retention time of 906 s.
Compound `Cc1noc(COC2CCN(C(=O)NCCc3ccccc3)CC2)n1` has an RP-LC retention time of 694 s.
`O=C(NCC1CCOCC1)c1nccc2ccccc12` gave an RP-LC retention time of 717 s.
Compound `Clc1cccc(-c2nnc(-c3nc(NC4CCCC4)c4ccccc4n3)o2)c1` has an RP-LC retention time of 1170 s.
For `Cn1nccc1C(=O)N1CCC(c2nc(-c3ccccc3)no2)C1` (centres undefined), the RP-LC retention time was 779 s.
With `Cc1cc(=O)n(CC(=O)Nc2ccc(F)cc2)c(N2CCCCC2)n1` the RP-LC retention time was 635 s.
Compound `Cc1nc2ccccc2nc1N1CCCC1` has an RP-LC retention time of 680 s.
`COc1ccc(-c2n[nH]c3c2C(c2cccnc2)N(c2ccc(Br)cc2)C3=O)cc1` (centres undefined) gave an RP-LC retention time of 768 s.
With `COc1ccc(NC(=O)Cn2c(C)nc3c(sc4nc(-c5ccccc5)ccc43)c2=O)c(OC)c1` the RP-LC retention time was 1040 s.
Work on `COc1ccc(OC)c(NC(=O)C2Oc3ccccc3NC2=O)c1` (centres undefined) yielded an RP-LC retention time of 773 s.
In the case of `Cc1ccc(CNc2c(-c3ccc(C(C)C)cc3)nc3ncccn23)cc1`, the RP-LC retention time is reported as 907 s.
With `CC1CCC(C(=O)Nc2cc3c(cc2N2CCCCC2)n(C)c(=O)c(=O)n3C)CC1` (centres undefined) the RP-LC retention time was 1050 s.
In the case of `Cc1ccc(-c2nnc(C)c(NCc3cccs3)n2)cc1`, the RP-LC retention time is reported as 700 s.
For `CCOc1ccccc1NS(=O)(=O)c1ccccc1-c1nc(-c2ccc(F)cc2)no1`, the RP-LC retention time was 1150 s.
`Cc1cc(NC(=O)Cn2cnc3nc4c(cc3c2=O)CCCC4)ccc1Br` gave an RP-LC retention time of 851 s.
Work on `O=C(Nc1cnc(N2CCCC2)nc1)c1cccs1` yielded an RP-LC retention time of 667 s.
Compound `COc1ccc(NC(=O)N2CCC3(CC2)NC(=O)c2ccc(Cl)cc2N3C)c(C)c1` has an RP-LC retention time of 787 s.
`COc1cc(OC)c(NC(=O)N2CCCC(Cn3cnc4cccnc43)C2)cc1Cl` (centres undefined) gave an RP-LC retention time of 703 s.
Work on `O=C(Cc1nnc(-c2ccc3ncccc3c2)o1)Nc1ccc(Cl)cc1` yielded an RP-LC retention time of 760 s.
For `COc1cccc(N2CCN(S(=O)(=O)c3cc(-c4cc(C(F)(F)F)[nH]n4)sc3C)CC2)c1`, the RP-LC retention time was 1120 s.
Compound `CC1CCCN(c2ccc(NC(=O)c3cccs3)cc2C(=O)O)C1` (centres undefined) has an RP-LC retention time of 666 s.
`CCCN1CCN(c2cc(C(=O)O)c3cc(NS(=O)(=O)c4cc(F)ccc4C)ccc3n2)CC1` showed an RP-LC retention time of 627 s.
In the case of `CCCCNC(=O)CCc1c(C)n(CC)c2nc(-c3ccccc3)nn2c1=O`, the RP-LC retention time is reported as 796 s.
`CC(C)N1C(=O)C2(CCCC2)C1C(=O)N1CCc2ccccc21` (centres undefined) showed an RP-LC retention time of 780 s.
Work on `COc1ccc(N2CCN(C(=O)Cn3cccc3-c3nnc(-c4ccccc4)o3)CC2)cc1` yielded an RP-LC retention time of 907 s.
In the case of `O=C(CN1CC=C(c2cnn(-c3ccc(F)cc3)c2)CC1)NCc1ccco1`, the RP-LC retention time is reported as 658 s.
For `COc1ccccc1-c1nc2cnccn2c1NCCC(=O)N(C)C`, the RP-LC retention time was 596 s.
Compound `CN1C(=O)CCc2cc(NC(=O)C3CCC3)ccc21` has an RP-LC retention time of 668 s.
With `COc1ccc(-n2ncc3c(=O)n(Cc4nc(-c5cccc(OC)c5)no4)cnc32)cc1` the RP-LC retention time was 984 s.
For `Cc1ccc(NC(=O)C2CCN(S(=O)(=O)c3c(C)[nH]c(C)c3C(=O)N3CCCC3)CC2)cc1C`, the RP-LC retention time was 727 s.
Compound `CC(C)N1CCCn2cc(S(=O)(=O)Nc3cccc(OC(F)(F)F)c3)cc2C1=O` has an RP-LC retention time of 881 s.
For `Cc1ccc(NC(=O)N2CCC(n3cnc4ccccc4c3=O)CC2)c(C)c1`, the RP-LC retention time was 751 s.
Compound `CCOc1ccccc1NC(=O)C1CN(S(C)(=O)=O)CC12CCCCC2` (centres undefined) has an RP-LC retention time of 682 s.
`CC(CCc1ccccc1)NC(=O)C1CCN(S(C)(=O)=O)c2cc(Cl)ccc2O1` (centres undefined) showed an RP-LC retention time of 1070 s.
`CCCCC(CC)C(=O)Nc1nc(-c2ccc(Cl)cc2)cs1` (centres undefined) showed an RP-LC retention time of 1240 s.
For `CCn1c(=O)c(N2CCC(NC(=O)NC3CCCCC3)CC2)nc2ccccc21`, the RP-LC retention time was 831 s.
Work on `CCOC(=O)C1CCN(C(=O)C2COC3(CCCCC3)N2C(=O)c2cccc(Cl)c2)CC1` (centres undefined) yielded an RP-LC retention time of 958 s.
In the case of `Cn1cnc2cc(CNC(=O)c3ccc(C#N)cc3)ccc21`, the RP-LC retention time is reported as 578 s.
Work on `CCc1ccc(C2=C(C)C(N3CCCN(C(=O)C(C)CC)CC3)=NS2(=O)=O)cc1` (centres undefined) yielded an RP-LC retention time of 888 s.
Compound `COc1ccc(-c2ncc(C(=O)Nc3ccc(OC)cc3OC)c(-c3ccncc3)n2)cc1` has an RP-LC retention time of 839 s.
`O=C(Nc1ccc(Br)cc1)C1CCCN(c2ncc(-c3cccc(F)c3)cn2)C1` (centres undefined) showed an RP-LC retention time of 1230 s.
For `Cc1ccc(CN2C(=O)NC3(CCN(C(=O)c4sccc4C)CC3)C2=O)cc1`, the RP-LC retention time was 825 s.
In the case of `O=C(c1cc(-c2ccc(Br)cc2)n[nH]1)N1CCN(c2ccc(N3CCOCC3)nn2)CC1`, the RP-LC retention time is reported as 649 s.
For `CNC(=O)[C@@H]1CN(C(=O)c2cccc(Br)c2)C[C@H]1CO`, the RP-LC retention time was 586 s.
`CCOCCCNC(=O)C1CCN(c2cnn(Cc3ccccc3)c(=O)c2)CC1` showed an RP-LC retention time of 679 s.
Compound `COc1ccc(-c2nnc(COc3ccc(NC(=O)C4CCN(C(C)=O)CC4)cc3)o2)cc1` has an RP-LC retention time of 703 s.
